Measurements: PMC6562704, “Antihypertensive Effect in Vivo of QAGLSPVR and Its Transepithelial Transport Through the Caco-2 Cell Monolayer” (Marine Drugs, 2019)
Ends that are not written are not given here.

How the values were obtained:
[1] = molecular target: angiotensin-I-converting enzyme (ACE); settings: in vitro; read-out: IC50 for ACEI activity in vitro; cited from earlier work
Description: In our previous studies, enzymatic hydrolysates of tilapia skin gelatin were obtained using simulated gastrointestinal digestion. The hydrolysates were isolated and purified, and QAGLSPVR was obtained by successive chromatography of the gelatin hydrolysates. […] The present study aims to confirm the in vivo antihypertensive effect of QAGLSPVR by using the SHR model. […] Bioactive peptides are exposed through systemic circulation in human tissues. Unfortunately, bioactive peptides may be hydrolyzed before they reach the target tissues during passage through and absorption by the small intestine. […] For example, FKGRYYP was identified from ch ...

SHRs = settings: cited from earlier work
Description: Bioactive peptides are exposed through systemic circulation in human tissues. Unfortunately, bioactive peptides may be hydrolyzed before they reach the target tissues during passage through and absorption by the small intestine. […] For example, FKGRYYP was identified from ch ...

Caco-2 cell monolayer [2] = experiment: Transepithelial transport through the Caco-2 cell monolayer; format: in vitro ADME, human
Description: Caco-2 cells (1 × 10^5 cells/well) were routinely cultured in Dublecco’s modified Eagle’s medium with 15% FBS, […] streptomycin and 100 U/mL penicillin. Caco-2 cell monolayer was cultured in six-well Transwell plastic plates in a humidified incubator with 5% CO2 at 37 °C and Caco-2 cell monolayer can be used to perform transport experiments when the transepithelial resistance is higher than 400 Ω/cm^2 [29]. The Caco-2 cell culture medium was substituted with Hank’s balanced salt solution (HBSS) buffer (preheated at 37 °C for 30 min) prior to the transport experiment. The cell monolayer was cultured in HBSS buffer and maintained at 37 °C for 2 h. QAGLSPVR (2 mg/mL, 1.5 mL, dissolved in HBSS) was added to the AP of the cell monolayer, while HBSS buffer (2.5 mL) was added to the BL. The Caco-2 cell monolayer was cultured for 0.5, 1, or 2 h in an incubator at 37 °C. The AP and BL fractions were collected at different times. QAGLSPVR concentrations in the BL were detected by UPLC-Q-Orbitrap-MS^2 analysis according to our previous method, and the transport percentages of QAGLSPVR at different times were calculated.
The transport patterns of QAGLSPVR through the Caco-2 cell monolayer were studied using different transport inhibitors and enhancers. In brief, Gly-Sar, wortmannin, and cytochalasin D were dissolved in DMSO (final concentration of DMSO in HBSS = 0.05%) and final concentrations of25 mM, 500 nM, and 0.5 μg/mL, respectively. The Caco-2 cell monolayer was pre-incubated with Gly-Sar (a peptide transporter PepT1 substrate), wortmannin (atranscytosis inhibitor), or cytochalasin D (a TJ disruptor)for 30 min followed by addition of 1.5 mL of 2 mg/mL QAGLSPVR to the AP and 2.5 mL of fresh HBSS to the BL. After 2 h of incubation, the QAGLSPVR content in the BL was determined via UPLC-Q-Orbitrap-MS^2 analysis according to our previous method, and transport percentages were calculated.

Caco-2 cell monolayer [3] = settings: cited from earlier work
Description: QAGLSPVR was proven to produce a clear antihypertensive effect on SHRs in this study. To validate whether QAGLSPVR could be completely absorbed to regulate blood pressure, the transport percentage of QAGLSPVR was evaluated via the Caco-2 cell monolayer model. Caco-2 cells can be used as an in vitro model of the human intestinal epithelium due to the various brush border membrane enzymes characterizing these cells. At least eight membrane enzymes are expressed by Caco-2 cells. The brush border membrane enzymes are membrane peptidases and can hydrolyze peptides into short fragments prior ...

Substance: FKGRYYP [peptide identified from chicken muscle hydrolysates]
- IC50 [1]: 550 µM
- antihypertensive activity after oral administration to SHRs (in words) (SHRs): no antihypertensive activity

Substance: QAGLSPVR [QAGLSPVR]
- effect of cytochalasin D on QAGLSPVR transport (in words) (Caco-2 cell monolayer [2]; Caco-2, AP to BL, 30 min pre-incubation with 0.5 μg/mL cytochalasin D (TJ disruptor), 2 mg/mL peptide, HBSS, 2 h, UPLC-Q-Orbitrap-MS^2, p < 0.05): significantly increased
- effect of wortmannin on QAGLSPVR transport (in words) (Caco-2 cell monolayer [2]; Caco-2, AP to BL, 30 min pre-incubation with 500 nM wortmannin (transcytosis inhibitor), 2 mg/mL peptide, HBSS, 2 h, UPLC-Q-Orbitrap-MS^2, p > 0.05): did not significantly affect
- effect of Gly-Sar on QAGLSPVR transport (in words) (Caco-2 cell monolayer [2]; Caco-2, AP to BL, 30 min pre-incubation with 25 mM Gly-Sar (PepT1 substrate), 2 mg/mL peptide, HBSS, 2 h, UPLC-Q-Orbitrap-MS^2, p > 0.05): no significant effect
- integrity on transport through the Caco-2 cell monolayer (in words) (Caco-2 cell monolayer [2]; Caco-2 monolayer, AP to BL, HBSS, 2 mg/mL, 37 °C, 0.5-2 h, UPLC-Q-Orbitrap-MS^2): transported intact
- transport percentage (Caco-2 cell monolayer [2]; Caco-2 monolayer, AP to BL, six-well Transwell, transepithelial resistance > 400 Ω/cm^2, HBSS, 2 mg/mL peptide (1.5 mL) in AP, 2.5 mL HBSS in BL, 37 °C, 2 h, UPLC-Q-Orbitrap-MS^2, mean ± SD): 3.5%

Substance: QIGLF
- absorption through the Caco-2 cell monolayer (in words) (Caco-2 cell monolayer [3]): absorbed intact

Substance: RKQLQGVN
- absorption through the Caco-2 cell monolayer (in words) (Caco-2 cell monolayer [3]): absorbed intact

Substance: TNGIIR
- absorption through the Caco-2 cell monolayer (in words) (Caco-2 cell monolayer [3]): absorbed intact

Substance: YLGYLEQ
- absorption through the Caco-2 cell monolayer (in words) (Caco-2 cell monolayer [3]): absorbed intact
